Reference: publication doi:[…]/2021.10.07.463234v2 (biorxiv, 2021)
Structures can show the parent of a compound that is named as a salt.

Target: SARS-CoV-2 Mac1 (Severe acute respiratory syndrome coronavirus 2, UniProt P0DTD1)
Test: biochemical
Conditions: for inhibition at 100 µM: read-out: %inhibition; for %inhibition: 100 µM, inhibitor

Row | Compound | inhibition at 100 µM | %inhibition
1 | COc1cc(/C=C/C(=O)N2CCN(CC(=O)N3CCCC3)CC2)cc(OC)c1OC [Cinepazide maleate] | 24.7% | –
2 | CCn1nc(C(=O)O)c(=O)c2cc3c(cc21)OCO3 [Cinoxacin] | 0.626% | –
3 | CC(C)(Oc1ccc(C2CC2(Cl)Cl)cc1)C(=O)O (centres unmarked) [Ciprofibrate] | 20.7% | –
4 | COc1cc(N)c(Cl)cc1C(=O)N[C@H]1CCN(CCCOc2ccc(F)cc2)C[C@H]1OC [Cisapride hydrate] | 0% | –
5 | COc1cc(N)c(Cl)cc1C(=O)N[C@@H]1CCN(CCCOc2ccc(F)cc2)C[C@@H]1OC [Cisapride] | 1.02% | –
6 | COc1ccc(C[C@@H]2c3cc(OC)c(OC)cc3CC[N@+]2(C)CCC(=O)OCCCCCOC(=O)CC[N@@+]2(C)CCc3cc(OC)c(OC)cc3[C@H]2Cc2ccc(OC)c(OC)c2)cc1OC [Cisatracurium Besylate] | – | 1.897%
7 | CN(C)CCCC1(c2ccc(F)cc2)OCc2cc(C#N)ccc21 (centres unmarked) [Citalopram HBr] | 0% | –
8 | C[N+](C)(C)CCOP(=O)(O)OP(=O)([O-])OC[C@H]1O[C@@H](n2ccc(N)nc2=O)[C@H](O)[C@@H]1O [Citicoline sodium] | 1.89% | –
9 | CC(=O)NC1CCSC1=O (centres unmarked) [Citiolone] | 0% | –
10 | O=C(O)CC(O)(CC(=O)O)C(=O)O [Citric acid trilithium salt tetrahydrate] | 0% | –
11 | Nc1nc(Cl)nc2c1ncn2[C@H]1C[C@H](O)[C@@H](CO)O1 [Cladribine] | 1.17% | –
12 | CC[C@H]1OC(=O)[C@H](C)[C@@H](O[C@H]2C[C@@](C)(OC)[C@@H](O)[C@H](C)O2)[C@H](C)[C@@H](O[C@@H]2O[C@H](C)C[C@H](N(C)C)[C@H]2O)[C@](C)(OC)C[C@@H](C)C(=O)[C@H](C)[C@@H](O)[C@]1(C)O [Clarithromycin] | 24.2% | –
13 | CCCC(=O)OCOC(=O)C1=C(C)NC(C)=C(C(=O)OC)C1c1cccc(Cl)c1Cl (centres unmarked) [Clevidipine Butyrate] | 0% | –
14 | Cc1cn([C@H]2O[C@@H](CO)[C@H](O)[C@H]2F)c(=O)[nH]c1=O [Clevudine] | 18.3% | –
15 | CC(C)(C)C(=O)C(Oc1ccc(Cl)cc1)n1ccnc1 (centres unmarked) [Climbazole] | 18.5% | –
16 | CCC[C@@H]1C[C@@H](C(=O)N[C@@H]([C@H]2O[C@H](SC)[C@H](OP(=O)(O)O)[C@@H](O)[C@H]2O)[C@H](C)Cl)N(C)C1 [Clindamycin Phosphate] | 0% | –
17 | CCCCCCCCCCCCCCCC(=O)O[C@@H]1[C@@H](O)[C@@H](O)[C@@H]([C@H](NC(=O)[C@@H]2C[C@@H](CCC)CN2C)[C@H](C)Cl)O[C@@H]1SC [Clindamycin palmitate HCl] | 22.9% | –
18 | CCC(C)(Oc1ccc(C2(c3ccc(OC(C)(CC)C(=O)O)cc3)CCCCC2)cc1)C(=O)O (centres unmarked) [Clinofibrate] | 0% | –
19 | Oc1c(I)cc(Cl)c2cccnc12 [Clioquinol] | 6.9% | –
20 | CCC(=O)O[C@]1(C(=O)CCl)[C@@H](C)C[C@H]2[C@@H]3CCC4=CC(=O)C=C[C@]4(C)[C@@]3(F)[C@@H](O)C[C@@]21C [Clobetasol propionate] | 9.68% | –
21 | Nc1nc(Cl)nc2c1ncn2[C@@H]1O[C@H](CO)[C@@H](O)[C@@H]1F [Clofarabine] | 44.7% | –
22 | CC(C)/N=c1\cc2n(-c3ccc(Cl)cc3)c3ccccc3nc-2cc1Nc1ccc(Cl)cc1 [Clofazimine] | 5.33% | –
23 | CC(C)(Oc1ccc(Cl)cc1)C(=O)O [Clofibric Acid] | 17.2% | –
24 | CC(C)(C)CC(C)(C)c1ccc(O)c(Cc2ccc(Cl)cc2Cl)c1 [Clofoctol] | 0% | –

Row | Compound | inhibition at 100 µM | %inhibition
25 | Clc1cccc(Cl)c1NC1=NCCN1 [Clonidine HCl] | 0% | –
26 | Clc1ccc(C(OCCN2CCCCC2)c2ccccc2)cc1 (centres unmarked) [Cloperastine hydrochloride] | 5.64% | –
27 | COC(=O)[C@H](c1ccccc1Cl)N1CCc2sccc2C1 [Clopidogrel] | 0% | –
28 | Cc1nc(C)c(Cl)c(O)c1Cl [Clopidol] | 0.707% | –
29 | CC(C)NCC(O)c1ccccc1Cl (centres unmarked) [Clorprenaline HCl] | 7.59% | –
30 | Nc1cc(C(Cl)=C(Cl)Cl)c(S(N)(=O)=O)cc1S(N)(=O)=O [Clorsulon] | 7.3% | –
31 | Cc1cc(C(C#N)c2ccc(Cl)cc2)c(Cl)cc1NC(=O)c1cc(I)cc(I)c1O (centres unmarked) [Closantel] | – | 12.2%
32 | Cc1onc(-c2ccccc2Cl)c1C(=O)N[C@@H]1C(=O)N2[C@@H]1SC(C)(C)[C@@H]2C(=O)O [Cloxacillin Sodium] | 9.79% | –
33 | Oc1ccc(Cl)c2cccnc12 [Cloxiquine] | 8.06% | –
34 | O=C(c1ccc(F)c(F)c1Nc1ccc(I)cc1F)N1CC(O)([C@@H]2CCCCN2)C1 [Cobimetinib (GDC-0973, RG7420)] | 5.28% | –
35 | CC(=O)OCC(=O)[C@@]1(O)CC[C@H]2[C@@H]3CCC4=CC(=O)CC[C@]4(C)[C@H]3C(=O)C[C@@]21C [Cortisone acetate] | 10.7% | –
36 | O=c1ccc2ccccc2o1 [Coumarin] | 5.25% | –
37 | CC1(COc2ccc3c(c2)ncn3-c2ccc3cccc(N4CCC(N)CC4)c3n2)COC1 [Crenolanib (CP-868596)] | 0% | –
38 | N#Cc1ccc(Oc2ccc3c(c2)COB3O)cc1 [Crisaborole (AN2728)] | 10% | –
39 | C[C@@H](Oc1cc(-c2cnn(C3CCNCC3)c2)cnc1N)c1c(Cl)ccc(F)c1Cl [Crizotinib (PF-02341066)] | 6.7% | –
40 | COc1cc(/C=C/C(=O)CC(=O)/C=C/c2ccc(O)c(OC)c2)ccc1O [Curcumin] | 1.88% | –
41 | CC1CC(OC(=O)C(O)c2ccccc2)CC(C)(C)C1 (centres unmarked) [Cyclandelate] | 0% | –
42 | C1CNCCNCCNCCN1 [Cyclen] | 0% | –
43 | CN1CCN(C(c2ccccc2)c2ccccc2)CC1 [Cyclizine 2HCl] | 9.76% | –
44 | CN(C)CCC=C1c2ccccc2C=Cc2ccccc21 [Cyclobenzaprine HCl] | 3.24% | –
45 | CC(=O)Oc1ccc(C(=C2CCCCC2)c2ccc(OC(C)=O)cc2)cc1 [Cyclofenil] | 11.6% | –
46 | CC(=O)O[C@]1(C(C)=O)CC[C@H]2[C@@H]3C=C(Cl)C4=CC(=O)[C@@H]5C[C@@H]5[C@]4(C)[C@H]3CC[C@@]21C [Cyproterone Acetate] | 0% | –
47 | Nc1nc(N)nc(NC2CC2)n1 [Cyromazine] | 20.5% | –
48 | NCCS [Cysteamine HCl] | 35.3% | –

Row | Compound | inhibition at 100 µM | %inhibition
49 | Nc1ccn([C@@H]2O[C@H](CO)[C@@H](O)[C@@H]2O)c(=O)n1 [Cytarabine] | 0% | –
50 | O=c1cccc2n1C[C@@H]1CNC[C@H]2C1 [Cytisine] | 0% | –
51 | CC(C)(CO)[C@@H](O)C(=O)NCCCO [D panthenol] | 0% | –
52 | N[C@@H]1CONC1=O [D-Cycloserine] | 6.32% | –
53 | OC[C@@H](O)[C@@H](O)[C@H](O)[C@H](O)CO [D-Mannitol] | 0% | –
54 | N[C@H](Cc1ccccc1)C(=O)O [D-Phenylalanine] | 4.94% | –
55 | NC(=O)CC[C@@H](N)C(=O)O [D-glutamine] | 2.59% | –
56 | CCCCCCOC(=O)NC(=N)c1ccc(NCc2nc3cc(C(=O)N(CCC(=O)OCC)c4ccccn4)ccc3n2C)cc1 [Dabigatran Etexilate] | 0% | –
57 | CC(C)(C)c1nc(-c2cccc(NS(=O)(=O)c3c(F)cccc3F)c2F)c(-c2ccnc(N)n2)s1 [Dabrafenib (GSK2118436)] | – | 34.76%
58 | CC(C)(C)c1nc(-c2cccc(NS(=O)(=O)c3c(F)cccc3F)c2F)c(-c2ccnc(N)n2)s1 [Dabrafenib Mesylate] | – | 0.5368%
59 | CN(C)/N=N/c1[nH]cnc1C(N)=O [Dacarbazine] | 26.1% | –
60 | COC(=O)N[C@H](C(=O)N1CCC[C@H]1c1ncc(-c2ccc(-c3ccc(-c4cnc([C@@H]5CCCN5C(=O)[C@@H](NC(=O)OC)C(C)C)[nH]4)cc3)cc2)[nH]1)C(C)C [Daclatasvir (BMS-790052)] | 1.65% | –
61 | COc1cc2ncnc(Nc3ccc(F)c(Cl)c3)c2cc1NC(=O)/C=C/CN1CCCCC1 [Dacomitinib (PF299804, PF299)] | 3.46% | –
62 | CN[C@H]1C(=O)N[C@@H]2Cc3ccc(cc3)Oc3cc4cc(c3O[C@@H]3O[C@H](C(=O)O)[C@@H](O)[C@H](O)[C@H]3NC(=O)CCCCCCCCC(C)C)Oc3ccc(cc3Cl)[C@@H](O)[C@@H]3NC(=O)[C@H](NC(=O)[C@@H]4NC(=O)[C@@H](NC2=O)c2cc(cc(O)c2Cl)Oc2cc1ccc2O)c1ccc(O)c(c1)-c1c(O[C@H]2O[C@H](CO)[C@@H](O)[C@H](O)[C@@H]2O)cc(O)cc1[C@@H](C(=O)NCCCN(C)C)NC3=O [Dalbavancin] | 23.4% | –
63 | CN1C[C@@H]2C[C@H]1CN2c1cc2c(cc1F)c(=O)c(C(=O)O)cn2C1CC1 [Danofloxacin Mesylate] | 0% | –
64 | O=C1c2cccc(O)c2C(=O)c2c(O)cccc21 [Danthron] | 0% | –
65 | O=C1CN(/N=C/c2ccc(-c3ccc([N+](=O)[O-])cc3)o2)C(=O)N1 [Dantrolene sodium hemiheptahydrate] | – | 2.991%
66 | O=C1CN(/N=C/c2ccc(-c3ccc([N+](=O)[O-])cc3)o2)C(=O)N1 [Dantrolene sodium] | – | 11.92%
67 | CCOc1ccc(Cc2cc([C@@H]3O[C@H](CO)[C@@H](O)[C@H](O)[C@H]3O)ccc2Cl)cc1 [Dapagliflozin propanediol monohydrate] | – | 0%
68 | CCOc1ccc(Cc2cc([C@@H]3O[C@H](CO)[C@@H](O)[C@H](O)[C@H]3O)ccc2Cl)cc1 [Dapagliflozin] | – | 1.439%
69 | Cc1ccccc1N1CCN(CCc2nnc3n2CCCC3)CC1 [Dapiprazole Hydrochloride] | 12.7% | –
70 | CN(C)[C@@H](CCOc1cccc2ccccc12)c1ccccc1 [Dapoxetine HCl] | 35.7% | –
71 | Nc1ccc(S(=O)(=O)c2ccc(N)cc2)cc1 [Dapson] | 0% | –
